Measured values reported in patent US20100249175A1, “Dicationic compounds which selectively recognize G-quadruplex DNA” (priority 2005, published 2010).
Counter-ions that a name gives are not always drawn. Like-named read-outs stand apart in the source and are kept apart here.

Assays:
[1] = system: STIB 900 strain of Trypanosoma brucei rhodesiense (T. b. r.); experiment: In vivo T. b. r. STIB 900 mouse model; settings: for In Vivo T.b.r. cures: mice cured / mice infected, days 3-6 post-infection; for In Vivo T.b.r. survival time: observation up to day 60
Method: Groups of four mice were infected intraperitoneally with 2×10^5 bloodstream forms of T. b. r. STIB 900 which originates from a patient in Tanzania. On days 3, 4, 5, and 6 post-infection the experimental groups were treated with the drugs either by the intraperitoneal or for prodrugs by the oral route. Usually the highest tolerated dose was used which was determined in a pretoxicological experiment. Parasitemia of the mice was checked daily up to day 14 post-infection and thereafter 2 times per week up to day 60. One group of mice was not treated and acted as control. For relapsing mice, the day of death was recorded and the survival time determined.

[2] = system: Plasmodium falciparum (P. f.); experiment: In vitro antiprotozoal activity against P. f.; type: cell-based; settings: read-out: P.f. (IC50)
Method: (§1) In vitro antiprotozoal activities were measured following established protocols. […] E., et al., Bioorg.

[3] = system: Trypanosoma brucei rhodesiense (T. b. r.); experiment: In vitro antiprotozoal activity against T. b. r.; type: cell-based
Method: as §1

[4] = system: telomeric G-quadruplex DNA sequence d[AG3(T2AG3)3] (SEQ ID NO: 1); experiment: CD titration of compounds into human telomeric G-quadruplex DNA (induced CD); type: binding; design: key to Induced CD (no exciton): ++: Relative strength of the induced CD is indicated by the number of (+) marks; +++: Relative strength of the induced CD is indicated by the number of (+) marks; ++++: Relative strength of the induced CD is indicated by the number of (+) marks; settings: for Induced CD (no exciton) / Induced CD (exciton): G-Quadruplex Affinity
Excerpt: The oligonucleotides d[AG3(T2AG3)3] (SEQ ID NO: 1), d[AG3TG4AG3TG4A] (SEQ ID NO: 2), d[G4(T4G4)3] (SEQ ID NO: 3), d[(T2G4)4] (SEQ ID NO: 4), d[(GC)7] (SEQ ID NO: 5), d[[…]] (SEQ ID NO: 6), d[G2T2G2TGTG2T2G2] (SEQ ID NO: 7), d[[…]] (SEQ ID NO: 8), d[[…]] (SEQ ID NO: 9), d[[…]] (SEQ ID NO: 10), d[[…]] (SEQ ID NO: 11), d[TTAGGGT] (SEQ ID NO: 12), and d[TGGGGT] (SEQ ID NO: 13) were purchased with HPLC purification from Midland Certified Reagent Company (The Midland Certified Reagent Company, Inc., Midland, Tex., USA). The concentration of each DNA sample was determined spectrophotometrically at 260 nm using the nearest neighbor extinction coefficient.
Stock solutions of individual dicationic polyaryl compounds were prepared in double distilled water and diluted to working concentrations immediately before use with buffer. All measurements were performed at 20° C. in a 10 mM HEPES buffer (pH 7.4) containing 3 mM EDTA and 50 mM KCl, NaCl, or LiCl. Absorbance spectra were obtained on a Varian Cary 300 BIO UV-visible spectrophotometer (Varian, Inc., Palo Alto, Calif., United States of America) in a quartz cell with a 1 cm pathlength. CD spectra were recorded using a Jasco J-810 spectrapolarimeter (Jasco, Inc., Easton, Md., United States of America) in a 1-cm cell using an instrument scanning speed of 50 nm/min with a response time of 1 s. The spectra were averaged over four scans. A buffer baseline scan was collected in the same cuvette and subtracted from the average scan for each sample. Appropriate amounts of dicationic compound stock solution or DNA were added sequentially to increase the molar ratio.
When an achiral ligand binds tightly to a chiral host, such as DNA, a CD signal is induced in the wavelength region corresponding to the absorbance of the ligand. […] An additional negative band centered at 395 nm overlaps with the higher energy exciton band. […] Restriction of the rotational and translational freedom of the two molecules of the dimer relative to each other will cause an increase in the rotational strength of the induced CD band, resulting in a large ellipticity. See Allenmark, S., Chirality, 15, 409-422 (2003).
Some compounds appeared to bind to the telomeric G-quadruplex DNA sequence d[AG3(T2AG3)3] […] Relative strength of the induced CD is indicated by the number of (+) marks.

Compound | melting point [°C] | IC50 ([2]; in vitro) [nM] | IC50 [3] [nM] | Induced CD (no exciton) [4] | also measured
CC1=CC(C(=N)N)=CN2C=C(c3ccc(-c4ccc(C(=N)N)cc4)o3)NC12 (centres unmarked) [Compound 53] | – | 88 | 9 | +++ | In Vivo T.b.r. cures ([1]; 5 mg/kg ip): 4/4; In Vivo T.b.r. survival time ([1]; 5 mg/kg ip): > 60 days
N=C(N)c1ccc(-c2ccc(-c3nc4ccc(C(=N)N)cc4[nH]3)o2)cc1 [Compound 47] | – | 96 | 122 | +++ | In Vivo T.b.r. cures ([1]; 20 mg/kg ip): 1/4; In Vivo T.b.r. survival time ([1]; 20 mg/kg ip): > 27.75 days
N=C(N)c1ccc2nc(-c3ccc(-c4ccc(C(=N)N)o4)o3)[nH]c2c1 [Compound 45] | – | 92 | 102 | ++ | –
c1ccc2[nH]c(-c3ccc(-c4ccc(C5=NCCN5)cc4)o3)nc2c1 [Compound 50] | – | – | – | +++ | –
N=C(N)c1ccc(-c2ccc(-c3ccc(C(=N)N)o3)cc2)cc1 [Compound 51] | – | 1 | 5 | – | exciton splitting in CD spectra (in words) [4]: induced exciton splitting; Induced CD (exciton) [4]: +
c1cc(-c2ccc(-c3ccc(C4=NCCN4)o3)o2)oc1C1=NCCN1 [Compound 49] | – | 93 | 793 | – | exciton splitting in CD spectra (in words) [4]: induced exciton splitting; Induced CD (exciton) [4]: ++
N=C(N)c1ccc(-c2ccc(-c3ccc(-c4ccc(C(=N)N)cc4)o3)o2)cc1 [Compound 17, 5,5′-bis-(4-Amidinophenyl)-2,2′-bifuran hydrochloride salt] | – | – | – | – | In Vivo T.b.r. cures ([1]; 10 mg/kg ip): 0/4; In Vivo T.b.r. survival time ([1]; 10 mg/kg ip): 22 days; IC50 [2]: 20 nM; exciton splitting in CD spectra (in words) [4]: induced exciton splitting; Induced CD (exciton) [4]: ++++
N=C(N)c1ccc2nc(-c3ccc(-c4ccc(C(=N)N)c(F)c4)o3)[nH]c2c1 [Compound 52] | – | 31 | 52.5 | +++ | In Vivo T.b.r. cures ([1]; 20 mg/kg ip): 2/4; In Vivo T.b.r. survival time ([1]; 20 mg/kg ip): > 52 days
N=C(N)c1ccc(-c2ccc(-c3ccc(C(=N)N)cc3)o2)cc1 [furamidine, reference compound] | – | – | – | – | In Vivo T.b.r. survival time ([1]; 5 mg/kg ip): 46.5 days
COc1ccc(-c2nc3ccc(-c4nc5ccc(C(=N)N)cc5[nH]4)cc3[nH]2)cc1 [Compound 46] | – | 29 | 16 | ++++ | In Vivo T.b.r. cures ([1]; 5 mg/kg ip): 0/4; In Vivo T.b.r. survival time ([1]; 5 mg/kg ip): 14.75 days
c1cc(-c2ccc(-c3nc4ccc(C5=NCCN5)cc4[nH]3)o2)ccc1C1=NCCN1 [Compound 48] | – | – | – | ++++ | –

Now from value to compound, other results behind:

melting point [°C] | Compound | IC50 ([2]; in vitro) [nM] | IC50 [3] [nM] | Induced CD (no exciton) [4] | also measured
> 300 | N=C(N)c1ccnc(-c2ccc(-c3ccc(-c4cc(C(=N)N)ccn4)[se]3)[se]2)c1 | – | – | – | –
> 300 | N=C(N)c1ccnc(-c2ccc(-c3ccc(-c4cc(C(=N)N)ccn4)s3)s2)c1 [Compound 26b, 5,5′-Bis-(4-amidino-2-pyridyl)-2,2′-bithiophene] | – | – | – | –
> 300 | N=C(N)c1ccc(-c2ccc(-c3ccc(-c4ccc(C(=N)N)cc4)[se]3)[se]2)cc1 | – | – | – | –
> 300 | N=C(N)c1ccc(-c2ccc(-c3ccc(-c4ccc(C(=N)N)cn4)o3)o2)nc1 [Compound 22, 5,5′-Bis-(5-amidino-2-pyridyl)-2,2′-bifuran] | – | – | – | –
> 300 | N=C(N)c1ccc(-c2ccc(-c3ccc(-c4ccc(C(=N)N)cc4)s3)s2)cc1 [Compound 26a, 5,5′-Bis-(4-amidinophenyl)-2,2′-bithiophene] | – | – | – | –
